According to patent publication US20060167109A1, “Methods of reducing rhinovirus contagion and related compositions” (priority 2002, published 2006):

Assays:
Assay in all cases: HRV cytopathic effect assay
Format in all cases: cell-based
Conditions in all cases: Human rhinovirus sp.
HRV serotype 39 = system: HRV serotype 39
Experimental: (§1) For sensitivity testing to pleconaril, the appropriate cells were seeded into 96 well plates at a concentration of 4×10^4/well. After an overnight incubation at 37° C., the medium was removed and the cells were infected with 150 μL of a dilution of virus previously titrated to give ≧85% lysis of the monolayer after 3 days of incubation. The plates were incubated for 1 hour at the appropriate temperature and then overlaid with 50 μL of medium containing serial 2-fold dilutions of pleconaril in 2% DMSO. The final DMSO concentration in the assay was always 0.5%. No virus and no pleconaril controls were included on each plate. All drug concentrations were run in quadruplicate. The plates were then incubated for 3 days at the appropriate temperature followed by processing as described above.

HRV serotype 63 = system: HRV serotype 63
Experimental: as §1

HRV serotype 78 = system: HRV serotype 78
Experimental: as §1

HRV serotype 51 = system: HRV serotype 51
Experimental: as §1

HRV serotype 47 = system: HRV serotype 47
Experimental: as §1

HRV serotype 44 = system: HRV serotype 44
Experimental: as §1

HRV serotype 21 = system: HRV serotype 21
Experimental: as §1

HRV serotype 52 = system: HRV serotype 52
Experimental: as §1

HRV serotype 58 = system: HRV serotype 58
Experimental: as §1

HRV serotype 1B = system: HRV serotype 1B
Experimental: as §1

HRV serotype 86 = system: HRV serotype 86
Experimental: as §1

HRV serotype 54 = system: HRV serotype 54
Experimental: as §1

HRV serotype 48 = system: HRV serotype 48
Experimental: as §1

HRV serotype 55 = system: HRV serotype 55
Experimental: as §1

HRV serotype 32 = system: HRV serotype 32
Experimental: as §1

HRV serotype 93 = system: HRV serotype 93
Experimental: as §1

HRV serotype 99 = system: HRV serotype 99
Experimental: as §1

HRV serotype 66 = system: HRV serotype 66
Experimental: as §1

HRV serotype 27 = system: HRV serotype 27
Experimental: as §1

HRV serotype 82 = system: HRV serotype 82
Experimental: as §1

HRV serotype 13 = system: HRV serotype 13
Experimental: as §1

HRV serotype 15 = system: HRV serotype 15
Experimental: as §1

HRV serotype 84 = system: HRV serotype 84
Experimental: as §1

HRV serotype 38 = system: HRV serotype 38
Experimental: as §1

HRV serotype 79 = system: HRV serotype 79
Experimental: as §1

HRV serotype 5 = system: HRV serotype 5
Experimental: as §1

HRV serotype 76 = system: HRV serotype 76
Experimental: as §1

HRV serotype 33 = system: HRV serotype 33
Experimental: as §1

HRV serotype 35 = system: HRV serotype 35
Experimental: as §1

HRV serotype 90 = system: HRV serotype 90
Experimental: as §1

HRV serotype 100 = system: HRV serotype 100
Experimental: as §1

HRV serotype 56 = system: HRV serotype 56
Experimental: as §1

HRV serotype 59 = system: HRV serotype 59
Experimental: as §1

HRV serotype 19 = system: HRV serotype 19
Experimental: as §1

HRV serotype 9 = system: HRV serotype 9
Experimental: as §1

HRV serotype 73 = system: HRV serotype 73
Experimental: as §1

HRV serotype 87 = system: HRV serotype 87
Experimental: as §1

HRV serotype 92 = system: HRV serotype 92
Experimental: as §1

HRV serotype 34 = system: HRV serotype 34
Experimental: as §1

HRV serotype 83 = system: HRV serotype 83
Experimental: as §1

HRV serotype 4 = system: HRV serotype 4
Experimental: as §1

HRV serotype 14 = system: HRV serotype 14
Experimental: as §1

HRV serotype 46 = system: HRV serotype 46
Experimental: as §1

HRV serotype 16 = system: HRV serotype 16
Experimental: as §1

HRV serotype 91 = system: HRV serotype 91
Experimental: as §1

HRV serotype 95 = system: HRV serotype 95
Experimental: as §1

Cc1cc(CCCOc2c(C)cc(-c3noc(C(F)(F)F)n3)cc2C)on1 [pleconaril, 3-[3,5-dimethyl-4-[3-(3-methyl-5-isoxazolyl)propoxy]phenyl]-5-(trifluoromethyl)-1,2,4-oxadiazole]
IC50 (HRV serotype 39): 10 nM
IC50 (HRV serotype 63): 160 ± 80 nM
IC50 (HRV serotype 78): 80 ± 40 nM
IC50 (HRV serotype 51): 50 ± 30 nM
IC50 (HRV serotype 47): 10 nM
IC50 (HRV serotype 44): 110 ± 70 nM
IC50 (HRV serotype 21): 40 ± 10 nM
IC50 (HRV serotype 52): 2490 ± 1210 nM
IC50 (HRV serotype 58): 40 ± 30 nM
IC50 (HRV serotype 1B): 160 ± 30 nM
IC50 (HRV serotype 86): 130 ± 100 nM
IC50 (HRV serotype 54): 460 ± 110 nM
IC50 (HRV serotype 48): 1800 ± 630 nM
IC50 (HRV serotype 55): 20 ± 20 nM
IC50 (HRV serotype 32): 330 ± 130 nM
IC50 (HRV serotype 93): > 12.5 µM
IC50 (HRV serotype 99): > 12.5 µM
IC50 (HRV serotype 66): 110 ± 70 nM
IC50 (HRV serotype 27): 5.9 ± 1.9 µM
IC50 (HRV serotype 82): 220 ± 190 nM
IC50 (HRV serotype 13): 580 ± 130 nM
IC50 (HRV serotype 15): 590 ± 290 nM
IC50 (HRV serotype 84): > 12.5 µM
IC50 (HRV serotype 38): 100 ± 40 nM
IC50 (HRV serotype 79): 40 ± 60 nM
IC50 (HRV serotype 5): > 12.5 µM
IC50 (HRV serotype 76): 240 ± 290 nM
IC50 (HRV serotype 33): 160 ± 30 nM
IC50 (HRV serotype 35): 40 ± 10 nM
IC50 (HRV serotype 90): 190 ± 60 nM
IC50 (HRV serotype 100): 30 ± 10 nM
IC50 (HRV serotype 56): 110 ± 60 nM
IC50 (HRV serotype 59): 780 ± 340 nM
IC50 (HRV serotype 19): 200 ± 10 nM
IC50 (HRV serotype 9): 220 ± 80 nM
IC50 (HRV serotype 73): 210 ± 90 nM
IC50 (HRV serotype 87): > 12.5 µM
IC50 (HRV serotype 92): 20 ± 10 nM
IC50 (HRV serotype 34): 90 ± 20 nM
IC50 (HRV serotype 83): 20 ± 10 nM
IC50 (HRV serotype 4): > 12.5 µM
IC50 (HRV serotype 14; HRV14, Table 2, mean of at least two independent determinations): 160 ± 90 nM
IC50 (HRV serotype 14; serotype 14): 160 ± 90 nM
IC50 (HRV serotype 46): 160 ± 50 nM
IC50 (HRV serotype 16): 570 ± 190 nM
IC50 (HRV serotype 91): 730 ± 390 nM
IC50 (HRV serotype 95): 810 ± 510 nM
